Results reported in patent US6201006A, “Aromatic amidine derivatives useful as selective thrombin inhibitors” (C & C Research Laboratories, priority 1996, dated 2001).

Target: T1, human thrombin (Homo sapiens, UniProt P00734)
T1 construct: purchased Sigma T-6759
Test: Inhibitory activity for thrombin (chromogenic substrate hydrolysis, 405 nm)
Type: biochemical
Details: for Selectivity (trypsin/thrombin): IC50 for trypsin divided by IC50 for thrombin; for IC50: human thrombin, 20 min, pH 8.0, N-benzoyl-Phe-Val-Arg-p-nitroanilide
Protocol: 20 μl of each compound of the present invention was dissolved in 50% methanol in various concentrations and then added to each well of a microplate, to each of which 160 μl of the reaction medium containing 125 mM NaCl, 50 mM Tris-HCl (pH 8.0) and 2 mM synthetic substrate (N-benzoyl-Phe-Val-Arg-p-nitroanilide, Sigma B-7632) were added. 20 μl of human thrombin solution (5 units/ml, Sigma T-6759, manufactured by Sigma Co.) containing 0.1% bovine serum albumin was added to each well to initiate the enzymatic reaction. After 20 minutes, the hydrolysis of substrate was determined by measuring the absorbance at 405 nm. […] The selectivity index was calculated by dividing the IC50 value for trypsin by the IC50 value for thrombin. The thrombin inhibitory activity and the trypsin inhibitory activity for the compound of the present invention are shown in the following Table 2.

| Structure (SMILES) | Selectivity (trypsin/thrombin) | IC50 [nM] |
| --- | --- | --- |
| CCOC(=O)[C@H](C)NC(=O)CN1CCC[C@@H]1C(=O)N1CCC[C@H]1CCc1cc2ccc(C(=N)N)cc2n1CC [Compound 116, ethyl (s)-2-[2-[(R)-2-[[(S)-2-[2-(6-amidino-1-ethylindol-2-yl)ethyl]pyrrolidinyl]carbonyl]pyrrolidinyl]-acetylamino]propanoate] | 27.4 | 31.7 |
| CCn1c(CC[C@@H]2CCCN2C(=O)C(C)N(CC(=O)O)C2CC2)cc2ccc(C(=N)N)cc21 (stereo partly drawn) [Compound 65, 2-[[2-[(S)-2-[2-(6-amidino-1-ethylindol-2-yl)ethyl]pyrrolidinyl]-1-methyl-2-oxoethyl]cyclopylamino]acetic acid] | – | 22.1 |
| Cn1c(CC[C@@H]2CCCN2Cc2c(C(N)=O)sc3ccccc23)cc2ccc(C(=N)N)cc21 [Compound 9] | – | 33.9 |
| CCn1c(CC[C@@H]2CCCN2C(=O)[C@H]2CCC(=O)N2CC(N)=O)cc2ccc(C(=N)N)cc21 [Compound 187, 1-ethyl-2-[2-[(S)-1-[[(R)-1-(carbamoylmethyl)-5-oxo-pyrrolidin-2-yl]carbonyl]pyrrolidin-2-yl]ethyl]indole-6-carboxamidine] | – | 25.6 |
| CCn1c(CC[C@@H]2CCCN2C(=O)[C@H]2CCCN2CCCCCC(=O)O)cc2ccc(C(=N)N)cc21 [Compound 131, 6-[(R)-2-[[(S)-2-[2-(6-amidino-1-ethylindol-2-yl)-ethyl]pyrrolidinyl]carbonyl]pyrrolidinyl]hexanoic acid] | 14.7 | 9.29 |
| CCn1c(CC[C@@H]2CCCN2C(=O)[C@H](NS(C)(=O)=O)c2ccccc2)cc2ccc(C(=N)N)cc21 [Compound 37, 1ethyl-2-[2-[(S)-1-((R)-2-methylsulfonylamino-2-phenylacetyl)pyrrolidin-2-yl]ethyl]indole-6-carboxamidine] | – | 5.4 |
| CCn1c(CC[C@@H]2CCCN2C(=O)CC2CCCC2)cc2ccc(C(=N)N)cc21 [Compound 43, 1ethyl-2-[2-[(S)-1-(2-cyclopentylacetyl)pyrrolidin-2-yl]ethyl]indole-6-carboxamidine] | 40.3 | 9.96 |
| CCOC(=O)CN1CCC[C@@H]1C(=O)N1CCC[C@H]1CCc1cc2ccc(C(=N)N)cc2n1C [Compound 84, ethyl 2-[(R)-2-[[(S)-2-[2-(6-amidino-1-methylindol-2-yl)ethyl]pyrrolidinyl]carbonyl]pyrrolidinyl]acetate] | 87.0 | 51.6 |
| CCn1c(CC[C@@H]2CCCN2C(=O)Cc2ccccc2C(=O)O)cc2ccc(C(=N)N)cc21 [Compound 24, 2-[2-[(S)-2-[2-(6-amidino-1-ethylindol-2-yl)ethyl]pyrrolidinyl]-2-oxoethyl]benzoic acid] | 83.6 | 8.45 |
| CCOC(=O)CN(CC(=O)N1CCC[C@H]1CCc1cc2ccc(C(=N)N)cc2n1CC)C1CC1 [Compound 62, ethyl 2-[[2-[(S)-2-[2-(6-amidino-1-ethylindol-2-yl)ethyl]pyrrolidinyl]-2-oxoethyl]cyclopropylamino]acetate] | 49.7 | 11.7 |
| CCOC(=O)CCCCCN1CCC[C@@H]1C(=O)N1CCC[C@H]1CCc1cc2ccc(C(=N)N)cc2n1CC [Compound 130, ethyl 6-[(R)-2-[[(S)-2-[2-(6-amidino-1-ethylindol-2-yl)-ethyl]pyrrolidinyl]carbonyl]pyrrolidinyl]hexanoate] | – | 36.5 |
| CCn1c(CC[C@@H]2CCCN2C(=O)[C@H]2CCCN2C(=O)C[C@H](NS(C)(=O)=O)C(=O)O)cc2ccc(C(=N)N)cc21 [Compound 163, 4-[(R)-2-[[(S)-2-[2-(6-amidino-1-ethylindol-2-yl)ethyl]pyrrolidinyl]carbonyl]pyrrolidinyl]-(S)-2-[(methanesulfonyl)amino]-4-oxobutanoic acid] | 25.6 | 19.4 |
| CCOC(=O)C(c1ccccc1)N1CCC[C@@H]1C(=O)N1CCC[C@H]1CCc1cc2ccc(C(=N)N)cc2n1CC (stereo partly drawn) [Compound 112, ethyl-2-[(R)-2-[[(S)-2-[2-(6-amidino-1-ethylindol-2-yl)ethyl]pyrrolidinyl]carbonyl]pyrrolidinyl]-2-phenylacetate] | – | 29.2 |
| CCOC(=O)CCCCN1CCC[C@@H]1C(=O)N1CCC[C@H]1CCc1cc2ccc(C(=N)N)cc2n1CC [Compound 128, ethyl 5-[(R)-2-[[(S)-2-[2-(6-amidino-1-ethylindol-2-yl)ethyl]pyrrolidinyl]carbonyl]pyrrolidinyl]pentanoate] | – | 26.2 |
| N=C(N)c1ccc2cc(CC[C@H]3CCCN3C(=O)Cc3ccccc3)ccc2c1 [Compound 244, 6-[2-[(S)-1-(2-phenylacetyl)pyrrolidine-2-yl]ethyl]naphthalene-2-carboxamidine] | – | 53.6 |

Second part, the molecule after the results:

| Selectivity (trypsin/thrombin) | IC50 [nM] | Structure (SMILES) |
| --- | --- | --- |
| – | 34.6 | CCCC(CCC)C(=O)N1CCC[C@@H]1C(=O)N1CCC[C@H]1CCc1cc2ccc(C(=N)N)cc2n1CC [Compound 173, 1-ethyl-2-[2-[(S)-1-[[(R)-1-(2-propylpentanoyl)pyrrolidin-2-yl]carbonyl]pyrrolidin-2-yl]ethyl]indole-6-carboxamidine] |
| – | 28.6 | CCn1c(CC[C@@H]2CCCN2C(=O)[C@H]2CCCN2C(=O)C(C)CN)cc2ccc(C(=N)N)cc21 (stereo partly drawn) [Compound 156, 1-ethyl-2-[2-[(S)-1-[[(R)-1-(3-amino-2-methylpropanoyl)pyrrolidin-2-yl]carbonyl]pyrrolidin-2-yl]ethyl]indole-6-carboxamidine] |
| 38.6 | 37.7 | CCOC(=O)C(CC)N1CCC[C@@H]1C(=O)N1CCC[C@H]1CCc1cc2ccc(C(=N)N)cc2n1CC (stereo partly drawn) [Compound 110, ethyl 2-[(R)-2-[[(S)-2-[2-(6-amidino-1-ethylindol-2-yl)ethyl]pyrrolidinyl]carbonyl]pyrrolidinyl]butanoate] |
| – | 33.8 | CCn1c(CC[C@@H]2CCCN2C(=O)C2CCCCN2CC(=O)OC)cc2ccc(C(=N)N)cc21 (stereo partly drawn) [Compound 192, methyl-2-[2-[[(S)-2-[2-(6-amidino-1-ethylindol-2-yl)ethyl]pyrrolidinyl]carbonyl]piperidinyl]acetate] |
| – | 24.1 | CC(=O)N1CCC[C@@H]1C(=O)N1CCC[C@H]1CCc1cc2ccc(C(=N)N)cc2n1CC(N)=O [Compound 224, 2-[2-[(S)-1-[((R)-1-acetylpyrrolidin-2-yl)carbonyl]pyrrolidin-2-yl]ethyl]-1-(carbamoylmethyl)indole-6-carboxamidine] |
| – | 31.9 | CCOC(=O)C(C)N1CCC[C@@H]1C(=O)N1CCC[C@H]1CCc1cc2ccc(C(=N)N)cc2n1CC (stereo partly drawn) [Compound 109, ethyl-2-[(R)-2-[[(S)-2-[2-(6-amidino-1-ethylindol-2-yl)ethyl]pyrrolidinyl]carbonyl]pyrrolidinyl]propionate] |
| – | 25.5 | CCOC(=O)C[C@H](N)C(=O)N1CCC[C@@H]1C(=O)N1CCC[C@H]1CCc1cc2ccc(C(=N)N)cc2n1CC [Compound 147, ethyl 4-[(R)-2-[[(S)-2-[2-(6-amidino-1-ethylindol-2-yl)ethyl]pyrrolidinyl]carbonyl]pyrrolidinyl]-(S)-3-amino-4-oxobutanoate] |
| – | 30.9 | CCn1c(CC[C@@H]2CCCN2C(=O)[C@H]2CCCN2)cc2ccc(C(=N)N)cc21 [Compound 83] |
| – | 31.6 | CCn1c(CC[C@@H]2CCCN2C(=O)[C@H]2CCCN2C(=O)C2CCCNC2)cc2ccc(C(=N)N)cc21 (stereo partly drawn) [Compound 168, 1-ethyl-2-[2-[(S)-1-[[(R)-1-(3-piperidinylcarbonyl)pyrrolidin-2-yl]carbonyl]pyrrolidin-2-yl]ethyl]indole-6-carboxamidine] |
